Results reported in patent US12497393B2, “β-lactam compound, use thereof and preparation method therefor” (priority 2020, dated 2025).
In brackets after ≈: the same amount, converted by molar mass. Where two headings read alike, the source gives them in different places.

Tests used:
Test in all cases: Antibacterial activity MIC assay (two-fold dilution agar plating)
Type in all cases: cell-based
Acinetobacter baumannii = settings: for MIC: Acinetobacter baumannii, read-out: Minimal Inhibitory Concentration (MIC)
Method: (§1) Antibacterial Activity-Evaluating Method (MIC Assay)
(§2) In this study, the compounds of the present invention were tested for their antibacterial activities by using two-fold dilution agar plating method and Denley Multipoint Inoculator A400 according to the guidelines of the CLSI/NCCLS standard. The tested strains were amplified by hydrolyzed casein peptone (Mueller-Hinton Agar) broth and Brain and Heart Infusion. The strains used in this study were bacterial strains that were purchased from ATCC or clinically isolated in Chinese hospitals. Aztreonam, polymyxin or levofloxacin was used as positive control. The drugs were diluted with hydrolyzed casein peptone broth to the desired concentrations including 128.0, 64.0, 32.0, 16.0, 8.0, 4.0, 2.0, 1.0, 0.5, 0.25, 0.125, 0.06 and 0.03 μg/mL, and then placed respectively into each well and mixed thoroughly. After inoculation, the tested strains were incubated for 18 hours at a constant temperature of 35° C., and their growth levels were observed. The drug concentration with no microbial growth in the well was recorded as the lowest Minimal Inhibitory Concentration (MIC).

Citrobacter freundii = Citrobacter freundii ATCC 43864
Method: as §1, §2

Enterobacter aerogenes = Enterobacter aerogenes ATCC 13048
Method: as §1, §2

Enterobacter cloacae = settings: for MIC: read-out: Minimal Inhibitory Concentration (MIC)
Method: as §1, §2

Escherichia coli = settings: for MIC: Escherichia coli, read-out: Minimal Inhibitory Concentration (MIC)
Method: as §1, §2

Klebsiella Pneumoniae = settings: for MIC: Klebsiella pneumoniae, read-out: Minimal Inhibitory Concentration (MIC)
Method: as §1, §2

Proteus mirabilis = settings: for Minimal Inhibitory Concentration (MIC): Proteus mirabilis ATCC 49565
Method: as §1, §2

Proteus vulgaris = settings: for Minimal Inhibitory Concentration (MIC): Proteus vulgaris ATCC 29905
Method: as §1, §2

Providencia rettgeri = settings: for Minimal Inhibitory Concentration (MIC): Providencia rettgeri ATCC 31052
Method: as §1, §2

Pseudomonas aeruginosa = settings: for MIC: read-out: Minimal Inhibitory Concentration (MIC)
Method: as §1, §2

Salmonella typhi = settings: for Minimal Inhibitory Concentration (MIC): Salmonella typhi H901
Method: as §1, §2

Serratia marcescens = Serratia marcescens ATCC 21074
Method: as §1, §2

Shigella flexneri = Shigella flexneri ATCC 12022
Method: as §1, §2

[1] = tested on: Stenotrophomonas maltophilia; settings: Stenotrophomonas maltophilia ATCC 13636
Method: as §1, §2

[2] = Acinetobacter baumannii ATCC 19606
[3] = Enterobacter cloacae ATCC 43560
[4] = Enterobacter cloacae CDC1000654
[5] = Escherichia coli 08-85, mcr-1(+)
[6] = Escherichia coli 13-43, mcr-1(+)
[7] = Escherichia coli 13-66, mcr-1(+)
[8] = Escherichia coli 16-1, ESBLs(+)
[9] = Escherichia coli 16-7, ESBLs(−)
[10] = Escherichia coli 17-R28, CRE, NDM-1(+)
[11] = Escherichia coli ATCC 25922, ESBLs(−)
[12] = Escherichia coli ATCC 35218, ESBLs(+)
[13] = Escherichia coli CDC1001728, NDM-1(+)
[14] = Klebsiella Pneumoniae 09-20, mcr-1(+)
[15] = Klebsiella Pneumoniae 16-2, ESBLs(−)
[16] = Klebsiella Pneumoniae 16-14, ESBLs(+)
[17] = Klebsiella Pneumoniae ATCC 700603, ESBLs(+)
[18] = Klebsiella Pneumoniae ATCC BAA-2146, NDM-1(+)
[19] = Pseudomonas aeruginosa ATCC 27853

## CC1(C)[C@H](NC(=O)/C(=N\OC2(C(=O)O)CC2)c2nsc(N)n2)C(=O)N1OS(=O)(=O)O [Compound A-6]
Acinetobacter baumannii; Acinetobacter baumannii 16-16
  Minimal Inhibitory Concentration (MIC): >64 µg/mL
Acinetobacter baumannii; Acinetobacter baumannii 16-33
  Minimal Inhibitory Concentration (MIC): 16 µg/mL
Acinetobacter baumannii; [2]
  Minimal Inhibitory Concentration (MIC): 16 µg/mL
Citrobacter freundii
  Minimal Inhibitory Concentration (MIC): 0.25 µg/mL
Enterobacter aerogenes
  Minimal Inhibitory Concentration (MIC): 1 µg/mL
Enterobacter cloacae; [3]
  Minimal Inhibitory Concentration (MIC): 0.5 µg/mL
Enterobacter cloacae; [4]
  Minimal Inhibitory Concentration (MIC): 64 µg/mL
Escherichia coli; [5]
  Minimal Inhibitory Concentration (MIC): 4 µg/mL
Escherichia coli; [6]
  Minimal Inhibitory Concentration (MIC): 4 µg/mL
Escherichia coli; [7]
  Minimal Inhibitory Concentration (MIC): 4 µg/mL
Escherichia coli; [8]
  Minimal Inhibitory Concentration (MIC): 0.5 µg/mL
Escherichia coli; [9]
  Minimal Inhibitory Concentration (MIC): 0.5 µg/mL
Escherichia coli; [10]
  Minimal Inhibitory Concentration (MIC): >64 µg/mL
Escherichia coli; [11]
  Minimal Inhibitory Concentration (MIC): 0.5 µg/mL
Escherichia coli; [12]
  Minimal Inhibitory Concentration (MIC): 0.25 µg/mL
Escherichia coli; [13]
  Minimal Inhibitory Concentration (MIC): 4 µg/mL
Klebsiella Pneumoniae; [14]
  Minimal Inhibitory Concentration (MIC): 2 µg/mL
Klebsiella Pneumoniae; [15]
  Minimal Inhibitory Concentration (MIC): 0.5 µg/mL
Klebsiella Pneumoniae; [16]
  Minimal Inhibitory Concentration (MIC): 4 µg/mL
Klebsiella Pneumoniae; [17]
  Minimal Inhibitory Concentration (MIC): 64 µg/mL
Klebsiella Pneumoniae; [18]
  Minimal Inhibitory Concentration (MIC): 32 µg/mL
Proteus mirabilis
  Minimal Inhibitory Concentration (MIC): 1 µg/mL
Proteus vulgaris
  Minimal Inhibitory Concentration (MIC): ≤0.03 µg/mL
Providencia rettgeri
  Minimal Inhibitory Concentration (MIC): ≤0.03 µg/mL
Pseudomonas aeruginosa; Pseudomonas aeruginosa 16-11
  Minimal Inhibitory Concentration (MIC): 16 µg/mL
Pseudomonas aeruginosa; [19]
  Minimal Inhibitory Concentration (MIC): 16 µg/mL
Pseudomonas aeruginosa; Pseudomonas aeruginosa PAO1
  Minimal Inhibitory Concentration (MIC): 8 µg/mL
Salmonella typhi
  Minimal Inhibitory Concentration (MIC): 0.5 µg/mL
Serratia marcescens
  Minimal Inhibitory Concentration (MIC): 1 µg/mL
Shigella flexneri
  Minimal Inhibitory Concentration (MIC): 0.06 µg/mL
[1]
  Minimal Inhibitory Concentration (MIC): 32 µg/mL

## CC1(C)[C@H](NC(=O)/C(=N\OC2(C(=O)O)CCCCC2)c2csc(N)n2)C(=O)N1OS(=O)(=O)O [Compound A-7]
Acinetobacter baumannii; ATCC19606, Acinetobacter baumannii ATCC 19606
  MIC: 32 µg/mL (≈ 63.3 µM)
Acinetobacter baumannii; Acinetobacter baumannii 16-16
  MIC: > 64 µg/mL
Acinetobacter baumannii; Acinetobacter baumannii 16-33
  MIC: 32 µg/mL (≈ 63.3 µM)
Citrobacter freundii; ATCC43864, read-out: Minimal Inhibitory Concentration (MIC)
  MIC: 2 µg/mL (≈ 3.96 µM)
Enterobacter aerogenes; Klebsiella aerogenes, ATCC13048, read-out: Minimal Inhibitory Concentration (MIC)
  MIC: 4 µg/mL (≈ 7.91 µM)
Enterobacter cloacae; ATCC43560, Enterobacter cloacae ATCC 43560
  MIC: 1 µg/mL (≈ 1.98 µM)
Enterobacter cloacae; [4]
  MIC: 16 µg/mL (≈ 31.6 µM)
Escherichia coli; ATCC25922, Escherichia coli ATCC 25922, ESBLs(−)
  MIC: 4 µg/mL (≈ 7.91 µM)
Escherichia coli; ATCC35218, Escherichia coli ATCC 35218, ESBLs(+)
  MIC: 1 µg/mL (≈ 1.98 µM)
Escherichia coli; [5]
  MIC: 2 µg/mL (≈ 3.96 µM)
Escherichia coli; [6]
  MIC: 2 µg/mL (≈ 3.96 µM)
Escherichia coli; [7]
  MIC: 2 µg/mL (≈ 3.96 µM)
Escherichia coli; [8]
  MIC: 1 µg/mL (≈ 1.98 µM)
Escherichia coli; [9]
  MIC: 2 µg/mL (≈ 3.96 µM)
Escherichia coli; [10]
  MIC: 64 µg/mL (≈ 127 µM)
Escherichia coli; [13]
  MIC: 2 µg/mL (≈ 3.96 µM)
Klebsiella Pneumoniae; ATCC700603, Klebsiella Pneumoniae ATCC 700603, ESBLs(+)
  MIC: 8 µg/mL (≈ 15.8 µM)
Klebsiella Pneumoniae; ATCCBAA2146, Klebsiella Pneumoniae ATCC BAA-2146, NDM-1(+)
  MIC: 8 µg/mL (≈ 15.8 µM)
Klebsiella Pneumoniae; [14]
  MIC: 2 µg/mL (≈ 3.96 µM)
Klebsiella Pneumoniae; [15]
  MIC: 2 µg/mL (≈ 3.96 µM)
Klebsiella Pneumoniae; [16]
  MIC: 2 µg/mL (≈ 3.96 µM)
Klebsiella Pneumoniae; Klebsiella Pneumoniae 17-R27, CRE
  MIC: 4 µg/mL (≈ 7.91 µM)
Proteus mirabilis; Proteus mirabilis, ATCC49565, Proteus mirabilis ATCC 49565, read-out: Minimal Inhibitory Concentration (MIC)
  MIC: 0.12 µg/mL (≈ 0.237 µM)
Proteus vulgaris; Proteus vulgaris, ATCC29905, Proteus vulgaris ATCC 29905, read-out: Minimal Inhibitory Concentration (MIC)
  MIC: 0.25 µg/mL (≈ 0.495 µM)
Providencia rettgeri; Providencia rettgeri, ATCC31052, Providencia rettgeri ATCC 31052, read-out: Minimal Inhibitory Concentration (MIC)
  MIC: 0.25 µg/mL (≈ 0.495 µM)
Pseudomonas aeruginosa; ATCC27853, Pseudomonas aeruginosa ATCC 27853
  MIC: 32 µg/mL (≈ 63.3 µM)
Pseudomonas aeruginosa; Pseudomonas aeruginosa 16-11
  MIC: > 64 µg/mL
Pseudomonas aeruginosa; Pseudomonas aeruginosa PAO1
  MIC: 32 µg/mL (≈ 63.3 µM)
Salmonella typhi; Salmonella enterica, TYPHI, read-out: Minimal Inhibitory Concentration (MIC)
  MIC: 4 µg/mL (≈ 7.91 µM)
Serratia marcescens; ATCC21074, read-out: Minimal Inhibitory Concentration (MIC)
  MIC: 2 µg/mL (≈ 3.96 µM)
Shigella flexneri; ATCC12022, read-out: Minimal Inhibitory Concentration (MIC)
  MIC: 2 µg/mL (≈ 3.96 µM)
[1]; ATCC13636, read-out: Minimal Inhibitory Concentration (MIC)
  MIC: 16 µg/mL (≈ 31.6 µM)

## C=CCON=C(C(=O)NC1C(=O)N(OS(=O)(=O)O)C1(C)C)c1csc(N)n1 (stereo not drawn) [Compound B-1]
Acinetobacter baumannii; Acinetobacter baumannii 16-16
  Minimal Inhibitory Concentration (MIC): 32 µg/mL
Acinetobacter baumannii; Acinetobacter baumannii 16-33
  Minimal Inhibitory Concentration (MIC): 8 µg/mL
Acinetobacter baumannii; [2]
  Minimal Inhibitory Concentration (MIC): 8 µg/mL
Citrobacter freundii
  Minimal Inhibitory Concentration (MIC): 0.5 µg/mL
Enterobacter aerogenes
  Minimal Inhibitory Concentration (MIC): 1 µg/mL
Enterobacter cloacae; [3]
  Minimal Inhibitory Concentration (MIC): 0.25 µg/mL
Enterobacter cloacae; [4]
  Minimal Inhibitory Concentration (MIC): 8 µg/mL
Escherichia coli; [5]
  Minimal Inhibitory Concentration (MIC): 0.5 µg/mL
Escherichia coli; [6]
  Minimal Inhibitory Concentration (MIC): 1 µg/mL
Escherichia coli; [7]
  Minimal Inhibitory Concentration (MIC): 1 µg/mL
Escherichia coli; [8]
  Minimal Inhibitory Concentration (MIC): 0.25 µg/mL
Escherichia coli; [9]
  Minimal Inhibitory Concentration (MIC): 0.25 µg/mL
Escherichia coli; [11]
  Minimal Inhibitory Concentration (MIC): 0.5 µg/mL
Escherichia coli; [12]
  Minimal Inhibitory Concentration (MIC): 0.5 µg/mL
Escherichia coli; [13]
  Minimal Inhibitory Concentration (MIC): 4 µg/mL
Klebsiella Pneumoniae; [14]
  Minimal Inhibitory Concentration (MIC): 1 µg/mL
Klebsiella Pneumoniae; [15]
  Minimal Inhibitory Concentration (MIC): 0.5 µg/mL
Klebsiella Pneumoniae; [16]
  Minimal Inhibitory Concentration (MIC): 0.5 µg/mL
Klebsiella Pneumoniae; [17]
  Minimal Inhibitory Concentration (MIC): 16 µg/mL
Klebsiella Pneumoniae; [18]
  Minimal Inhibitory Concentration (MIC): 4 µg/mL
Proteus mirabilis
  Minimal Inhibitory Concentration (MIC): 0.125 µg/mL
Proteus vulgaris
  Minimal Inhibitory Concentration (MIC): ≤0.03 µg/mL
Providencia rettgeri
  Minimal Inhibitory Concentration (MIC): ≤0.03 µg/mL
Pseudomonas aeruginosa; Pseudomonas aeruginosa 16-11
  Minimal Inhibitory Concentration (MIC): >64 µg/mL
Pseudomonas aeruginosa; [19]
  Minimal Inhibitory Concentration (MIC): 64 µg/mL
Pseudomonas aeruginosa; Pseudomonas aeruginosa PAO1
  Minimal Inhibitory Concentration (MIC): 16 µg/mL
Salmonella typhi
  Minimal Inhibitory Concentration (MIC): 0.25 µg/mL
Serratia marcescens
  Minimal Inhibitory Concentration (MIC): 1 µg/mL
Shigella flexneri
  Minimal Inhibitory Concentration (MIC): 0.5 µg/mL
[1]
  Minimal Inhibitory Concentration (MIC): 16 µg/mL
